Source: US20260216164A1, “INDOLE COMPOUND DECOMPOSING IKZF2, AND USE THEREOF” (KOREA RESEARCH INSTITUTE OF CHEMICAL TECHNOLOGY, priority 2023, published 2026)

How the values were obtained:
IKZF2 (Helios) = IKZF2 (Helios) (Homo sapiens, UniProt Q96SW2+Q9UKS7); experiment: Screening of DC50 (nM) and Dmax (%) using WB-IKZF2 cell line (Western blot); format: cell-based; parameters: endogenous in cells; settings: 6 hours; for DC50: class symbols, read-out: WB-IKZF2 DC 50
Protocol: Experimental Example 2. Screening of DC50 (nM) and Dmax (%) Using WB-IKZF2 Cell Line
Candidate degraders were serially diluted and treated in cells cultured in complete medium, followed by incubation for 6 hours at 37° C. in a CO2 incubator. After 6 hours, the cells were harvested and lysed in RIPA buffer (150 mM NaCl, 1% Triton X-100, 1% sodium deoxycholate, 0.1% SDS, 50 mM Tris-HCl pH 7.5, and 2 mM EDTA) containing a protease inhibitor cocktail (Roche). The mixture was vortexed every 10 minutes and incubated on ice for 30 minutes, followed by centrifugation at 13,000 rpm for 10 minutes at 4° C. to isolate proteins. The isolated proteins were quantified using the Bradford assay (Bio-Rad, 5000006). Proteins were separated on 8% SDS-polyacrylamide gel, transferred onto nitrocellulose membranes (Amersham, 10600002), and incubated with primary antibodies at 4° C. for 18 hours. The following primary antibodies were used: anti-Helios rabbit monoclonal antibody (Cell Signaling, 42427, 1:3000) and anti-β-actin mouse monoclonal antibody (Santa Cruz, sc-47778, 1:5000). β-actin was used as a loading control. The next day, the membranes were washed with 1×TBST for 30 minutes and incubated with HRP-conjugated secondary antibodies corresponding to the primary antibodies at room temperature for 1 hour. The following secondary antibodies were used: anti-mouse IgG HRP-linked antibody (Sigma, A9044, 1:5000) and anti-rabbit IgG HRP-linked antibody (Cell Signaling, 7074, 1:5000). After washing with 1×TBST for 30 minutes, protein expression was visualized using the Pierce ECL Western blotting substrate (Thermo Fisher, 32106), and images were captured using a chemiluminescence image analysis system (GE Healthcare, AI680). The obtained images were quantified using the ImageJ software.

Helios (IKZF2) = Helios (IKZF2) (Homo sapiens, UniProt Q96SW2+Q9UKS7); experiment: Screening of Helios protein degraders using Nano-Glo HiBiT cell line (HiBiT-IKZF2); format: cell-based; settings: for remaining activity at 1 µM: compound 1 μM, read-out: HiBiT-IKZF2 Residual amount of Helios (%) 1 μM; for remaining activity at 1 µM / remaining activity at 10 µM: 6 hours, HiBiT-Helios knock-in Jurkat cells; for remaining activity at 10 µM: compound 10 μM, read-out: HiBiT-IKZF2 Residual amount of Helios (%) 10 μM
Protocol: To observe intracellular degradation of Helios, the Nano-Glo HiBiT detection system (Promega) was employed. […] The cells expressing Helios fused with HiBiT were validated using the Nano-Glo HiBiT detection system (Promega) according to a predetermined protocol, isolated as single cells, and cultured in complete medium to establish a monoclonal cell line.
After 6 hours, the Nano-Glo HiBiT detection reagent was added to each well in an equal volume to the cell culture medium and incubated at room temperature for 10 minutes. Following incubation, the HiBiT luminescence signal was measured using a microplate reader (Perkin Elmer).

Sequence of IKZF2 (Helios) (Q9UKS7 whole entry): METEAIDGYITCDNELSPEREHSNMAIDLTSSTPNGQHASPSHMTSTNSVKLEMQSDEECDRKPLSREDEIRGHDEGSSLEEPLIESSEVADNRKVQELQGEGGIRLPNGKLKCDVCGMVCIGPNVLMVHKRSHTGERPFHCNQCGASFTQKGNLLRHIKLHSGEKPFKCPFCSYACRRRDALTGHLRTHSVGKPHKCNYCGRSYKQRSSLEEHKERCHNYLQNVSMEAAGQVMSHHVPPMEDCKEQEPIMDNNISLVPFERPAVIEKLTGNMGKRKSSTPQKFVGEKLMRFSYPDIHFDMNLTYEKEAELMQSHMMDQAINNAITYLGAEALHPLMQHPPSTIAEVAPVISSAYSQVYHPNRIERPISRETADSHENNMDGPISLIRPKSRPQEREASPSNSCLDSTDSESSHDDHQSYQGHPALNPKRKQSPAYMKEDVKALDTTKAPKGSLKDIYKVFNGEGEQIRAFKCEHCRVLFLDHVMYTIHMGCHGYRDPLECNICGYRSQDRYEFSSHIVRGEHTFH
Sequence of IKZF2 (Helios) (Q96SW2 whole entry): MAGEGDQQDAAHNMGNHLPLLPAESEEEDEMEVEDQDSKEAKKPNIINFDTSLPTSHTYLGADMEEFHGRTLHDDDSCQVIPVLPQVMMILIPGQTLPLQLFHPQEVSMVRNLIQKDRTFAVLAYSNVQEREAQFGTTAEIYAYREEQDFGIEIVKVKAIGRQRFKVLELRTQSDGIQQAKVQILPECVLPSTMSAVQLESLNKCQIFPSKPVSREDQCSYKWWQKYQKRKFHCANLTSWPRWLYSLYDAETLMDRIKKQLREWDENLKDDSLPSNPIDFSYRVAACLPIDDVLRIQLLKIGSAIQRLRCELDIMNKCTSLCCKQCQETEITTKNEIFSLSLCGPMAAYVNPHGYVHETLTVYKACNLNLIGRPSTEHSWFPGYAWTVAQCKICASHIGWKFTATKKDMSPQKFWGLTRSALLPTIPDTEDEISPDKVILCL
Sequence of IKZF2 (Helios) (Q16531 whole entry partner): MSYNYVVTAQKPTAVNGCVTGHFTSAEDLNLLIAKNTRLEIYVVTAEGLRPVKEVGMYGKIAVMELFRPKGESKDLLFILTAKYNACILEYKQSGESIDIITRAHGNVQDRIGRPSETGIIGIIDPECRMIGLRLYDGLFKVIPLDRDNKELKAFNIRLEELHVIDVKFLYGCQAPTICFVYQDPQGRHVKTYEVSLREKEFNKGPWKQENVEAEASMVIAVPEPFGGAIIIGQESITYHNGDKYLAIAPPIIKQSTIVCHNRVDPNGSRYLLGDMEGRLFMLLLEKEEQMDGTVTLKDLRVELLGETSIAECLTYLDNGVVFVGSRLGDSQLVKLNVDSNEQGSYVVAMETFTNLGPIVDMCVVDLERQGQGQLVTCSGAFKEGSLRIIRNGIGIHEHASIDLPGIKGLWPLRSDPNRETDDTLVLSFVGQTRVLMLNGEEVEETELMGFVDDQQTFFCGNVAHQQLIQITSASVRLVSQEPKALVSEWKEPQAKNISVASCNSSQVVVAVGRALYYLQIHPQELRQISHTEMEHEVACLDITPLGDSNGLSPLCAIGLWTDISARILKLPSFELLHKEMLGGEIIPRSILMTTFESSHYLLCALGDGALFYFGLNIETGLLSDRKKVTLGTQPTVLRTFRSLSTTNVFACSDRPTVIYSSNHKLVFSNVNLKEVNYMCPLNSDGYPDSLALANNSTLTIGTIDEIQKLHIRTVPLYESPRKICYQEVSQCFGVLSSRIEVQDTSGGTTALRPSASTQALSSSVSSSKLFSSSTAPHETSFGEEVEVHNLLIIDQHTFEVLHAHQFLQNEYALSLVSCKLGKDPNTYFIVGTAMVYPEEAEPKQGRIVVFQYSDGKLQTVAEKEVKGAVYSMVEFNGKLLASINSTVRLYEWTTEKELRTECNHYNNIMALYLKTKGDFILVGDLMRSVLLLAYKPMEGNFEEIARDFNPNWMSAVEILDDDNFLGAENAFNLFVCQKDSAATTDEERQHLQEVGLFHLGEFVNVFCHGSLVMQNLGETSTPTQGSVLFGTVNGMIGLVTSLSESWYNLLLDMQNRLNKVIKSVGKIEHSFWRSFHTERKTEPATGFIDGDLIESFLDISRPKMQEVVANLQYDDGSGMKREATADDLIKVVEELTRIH
Sequence of Helios (IKZF2) (Q9UKS7 whole entry, the tested form may be a part): as the sequence (Q9UKS7 whole entry) above
Sequence of Helios (IKZF2) (Q96SW2 whole entry, the tested form may be a part): as the sequence (Q96SW2 whole entry) above
Sequence of Helios (IKZF2) (Q16531 whole entry partner, the tested form may be a part): as the sequence (Q16531 whole entry partner) above

Dmax (IKZF2 (Helios)) [%] | DC50 (IKZF2 (Helios)) [nM] | remaining activity at 1 µM (Helios (IKZF2)) [%] | remaining activity at 10 µM (Helios (IKZF2)) [%] | IKZF2 degradation activity (in words, comment on Table 1) (Helios (IKZF2); as shown in Table 1) | SMILES
92 | 10 to 100 | – | – | – | Cc1c(C(=O)N2CCC(c3ccc4c(c3F)CN(C3CCC(=O)NC3=O)C4=O)CC2)[nH]c2cc(Cl)c(C#N)cc12 (stereo not shown) [Compound 119, 6-chloro-2-(4-(2-(2,6-dioxopiperidin-3-yl)-4-fluoro-1-oxoindolin-5-yl)piperidine-1-carbonyl)-3-methyl-1H-indole-5-carbonitrile]
100 | < 10 | – | – | – | Cc1c(C(=O)N2CCC(c3ccc4c(c3F)CN(C3CCC(=O)NC3=O)C4=O)CC2)[nH]c2cc(C#N)ccc12 (stereo not shown) [Compound 118, 2-(4-(2-(2,6-dioxopiperidin-3-yl)-4-fluoro-1-oxoindolin-5-yl)piperidine-1-carbonyl)-3-methyl-1H-indole-6-carbonitrile]
– | 10 to 100 | – | – | – | Cc1c(C(=O)N2CCC(c3ccc4c(c3F)CN(C3CCC(=O)NC3=O)C4=O)CC2)[nH]c2cc(C#N)c(F)cc12 (stereo not shown) [Compound 120, 2-(4-(2-(2,6-dioxopiperidin-3-yl)-4-fluoro-1-oxoindolin-5-yl)piperidine-1-carbonyl)-5-fluoro-3-methyl-1H-indole-6-carbonitrile]
– | – | 13.9 | 13 | – | COc1ccc2c(C)c(C(=O)N3CCC(c4ccc5c(c4)CN(C4CCC(=O)NC4=O)C5=O)CC3)[nH]c2c1 (stereo not shown) [Compound 42, 3-(5-(1-(6-methoxy-3-methyl-1H-indole-2-carbonyl)piperidin-4-yl)-1-oxoinsoindolin-2-yl)piperidine-2,6-dione]
– | – | – | 30.7 | excellent IKZF2 degradation activity | Cc1c(C(=O)N2CC(N3CCC(c4ccc5c(c4)CN(C4CCC(=O)NC4=O)C5=O)CC3)C2)[nH]c2cc(Cl)ccc12 (stereo not shown) [Compound 63, 3-(5-(1-(1-(6-chloro-3-methyl-1H-indole-2-carbonyl)azetidin-3-yl)piperidin-4-yl)-1-oxoinsoindolin-2-yl)piperidine-2,6-dione]
– | – | – | 100 | – | O=C1CCC(N2Cc3cc(C4CCN(C(=O)c5c[nH]c6cc(Cl)ccc56)CC4)ccc3C2=O)C(=O)N1 (stereo not shown) [Comparative Substance 2, 3-(5-(1-(6-chloro-1H-indole-3-carbonyl)piperidin-4-yl)-1-oxoinsoindolin-2-yl)piperidine-2,6-dione, reference compound]
– | – | 38.4 | 24.6 | – | Cc1c(C(=O)N2CCC(c3ccc4c(c3)CN(C3CCC(=O)NC3=O)C4=O)CC2)[nH]c2cc(Cl)c(CN3CCNCC3)cc12 (stereo not shown) [Compound 109, 3-(5-(1-(6-chloro-3-methyl-5-(piperazin-1-ylmethyl)-1H-indole-2-carbonyl)piperidin-4-yl)-1-oxoinsoindolin-2-yl)piperidine-2,6-dione dichloride]
– | – | – | 23.8 | – | Cc1c(C(=O)N2CCC(N3CCC(c4ccc5c(c4)CN(C4CCC(=O)NC4=O)C5=O)CC3)CC2)[nH]c2cc(Cl)ccc12 (stereo not shown) [Compound 62, 3-(5-(1-(6-chloro-3-methyl-1H-indole-2-carbonyl)-[1,4′-bipiperidin]-4-yl)-1-oxoinsoindolin-2-yl)piperidine-2,6-dione]
– | – | 94.5 | 99.5 | – | O=C1CCC(N2Cc3cc(C4CCN(C(=O)c5cc6ccccc6[nH]5)CC4)ccc3C2=O)C(=O)N1 (stereo not shown) [Compound 9, 3-(5-(1-(1H-indole-2-carbonyl)piperidin-4-yl)-1-oxoinsoindolin-2-yl)piperidine-2,6-dione]
– | – | 89.9 | 94.1 | – | COc1cccc2cc(C(=O)N3CCC(c4ccc5c(c4)CN(C4CCC(=O)NC4=O)C5=O)CC3)[nH]c12 (stereo not shown) [Compound 12, 3-(5-(1-(7-methoxy-1H-indole-2-carbonyl)piperidin-4-yl)-1-oxoinsoindolin-2-yl)piperidine-2,6-dione]
– | – | 53.6 | 54.4 | – | O=C1CCC(N2Cc3cc(C4CCN(C(=O)c5cc6ccc(O)cc6[nH]5)CC4)ccc3C2=O)C(=O)N1 (stereo not shown) [Compound 18, 3-(5-(1-(6-hydroxy-1H-indole-2-carbonyl)piperidin-4-yl)-1-oxoinsoindolin-2-yl)piperidine-2,6-dione]
– | – | 94.8 | 101 | – | Cc1c(C(=O)N2CC=C(c3ccc4c(c3)CN(C3CCC(=O)NC3=O)C4=O)CC2)[nH]c2cc(Cl)ccc12 (stereo not shown) [Compound 70, 3-(5-(1-(6-chloro-3-methyl-1H-indole-2-carbonyl)-1,2,3,6-tetrahydropyridin-4-yl)-1-oxoinsoindolin-2-yl)piperidine-2,6-dione]
– | – | 107 | 107 | – | O=C1CCC(N2Cc3cc(C4CCN(C(=O)c5cc6c(Cl)cc(Cl)cc6[nH]5)CC4)ccc3C2=O)C(=O)N1 (stereo not shown) [Compound 6, 3-(5-(1-(4,6-dichloro-1H-indole-2-carbonyl)piperidin-4-yl)-1-oxoinsoindolin-2-yl)piperidine-2,6-dione]
– | – | 16.8 | 11.4 | – | Cc1c(C(=O)N2CCC(c3ccc4c(c3)CN(C3CCC(=O)NC3=O)C4=O)CC2)[nH]c2c(C)c(Cl)ccc12 (stereo not shown) [Compound 100, 3-(5-(1-(6-chloro-3,7-dimethyl-1H-indole-2-carbonyl)piperidin-4-yl)-1-oxoinsoindolin-2-yl)piperidine-2,6-dione]
– | – | 80 | 65.1 | – | Cc1c(C(=O)N2CCC(c3ccc4c(c3)CN(C3CCC(=O)NC3=O)C4=O)CC2)[nH]c2ccc(Cl)cc12 (stereo not shown) [Compound 38, 3-(5-(1-(5-chloro-3-methyl-1H-indole-2-carbonyl)piperidin-4-yl)-1-oxoinsoindolin-2-yl)piperidine-2,6-dione]
– | – | 56.6 | 51.5 | – | Cc1c(C(=O)N2CCC(c3ccc4c(c3)CN(C3CCC(=O)NC3=O)C4=O)CC2)[nH]c2cc(Cl)cc(Cl)c12 (stereo not shown) [Compound 107, 3-(5-(1-(4,6-dichloro-3-methyl-1H-indole-2-carbonyl)piperidin-4-yl)-1-oxoinsoindolin-2-yl)piperidine-2,6-dione]
– | – | 22.7 | 15.7 | – | Cc1c(C(=O)N2CCC(C#Cc3ccc4c(c3)CN(C3CCC(=O)NC3=O)C4=O)CC2)[nH]c2cc(Cl)ccc12 (stereo not shown) [Compound 43, 3-(5-((1-(6-chloro-3-methyl-1H-indole-2-carbonyl)piperidin-4-yl)ethynyl)-1-oxoinsoindolin-2-yl)piperidine-2,6-dione]
– | – | 42.8 | 33.6 | – | Cc1c(C(=O)N2CCC(c3ccc4c(c3)CN(C3CCC(=O)NC3=O)C4=O)CC2)[nH]c2cc(CN3CCNCC3)ccc12 (stereo not shown) [Compound 106, 3-(5-(1-(3-methyl-6-(piperazin-1-ylmethyl)-1H-indole-2-carbonyl)piperidin-4-yl)-1-oxoinsoindolin-2-yl)piperidine-2,6-dione dichloride]
– | – | 73.6 | 72.4 | – | CCc1c(C(=O)N2CCC(c3ccc4c(c3)CN(C3CCC(=O)NC3=O)C4=O)CC2)[nH]c2ccccc12 (stereo not shown) [Compound 29, 3-(5-(1-(3-ethyl-1H-indole-2-carbonyl)piperidin-4-yl)-1-oxoinsoindolin-2-yl)piperidine-2,6-dione]
– | – | 96 | 97.6 | – | O=C1CCC(N2Cc3cc(C=C4CCN(C(=O)c5cc6ccc(Cl)cc6[nH]5)CC4)ccc3C2=O)C(=O)N1 (stereo not shown) [Compound 26, 3-(5-((1-(6-chloro-1H-indole-2-carbonyl)piperidin-4-ylidene)methyl)-1-oxoinsoindolin-2-yl)piperidine-2,6-dione]
– | – | 31.8 | – | – | CN1CCN(Cc2c(C(=O)N3CCC(c4ccc5c(c4)CN(C4CCC(=O)NC4=O)C5=O)CC3)[nH]c3cc(Cl)ccc23)CC1 (stereo not shown) [Compound 114, 3-(5-(1-(6-chloro-3-((4-methylpiperazin-1-yl)methyl)-1H-indole-2-carbonyl)piperidin-4-yl)-1-oxoinsoindolin-2-yl)piperidine-2,6-dione]
– | – | 76.6 | 52.3 | – | O=Cc1c(C(=O)N2CCC(c3ccc4c(c3)CN(C3CCC(=O)NC3=O)C4=O)CC2)[nH]c2ccccc12 (stereo not shown) [Compound 35, 2-(4-(2-(2,6-dioxopiperidin-3-yl)-1-oxoindolin-5-yl)piperidine-1-carbonyl)-1H-indole-3-carbaldehyde]
